Measured values: patent US20140155376A1, “PYRROLOPYRAZINE KINASE INHIBITORS” (Hoffmann-La Roche Inc., priority 2010, published 2014)

target: T1, JAK3 (recombinant human kinase domain; h-jak3(810-1124)) (Homo sapiens, UniProt P52333); assay: Determination of IC50 of Janus Kinase (JAK) inhibition: JAK3, radioactive end-point assay with 33P-ATP; format: biochemical; details: not given
T1 construct: h-jak3(810- 1124)-sf9-c; made in house; host or cells: Sf9 insect cells
T1 sequence (P52333 810-1124): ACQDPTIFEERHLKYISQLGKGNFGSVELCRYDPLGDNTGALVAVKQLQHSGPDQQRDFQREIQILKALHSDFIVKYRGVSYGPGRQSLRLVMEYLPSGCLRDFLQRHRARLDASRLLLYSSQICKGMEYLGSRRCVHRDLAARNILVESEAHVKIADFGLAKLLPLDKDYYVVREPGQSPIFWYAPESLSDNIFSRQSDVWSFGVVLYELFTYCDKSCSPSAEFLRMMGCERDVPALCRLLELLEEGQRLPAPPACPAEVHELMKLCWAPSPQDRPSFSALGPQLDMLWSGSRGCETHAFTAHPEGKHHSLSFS

Row | Compound | IC50 [nM]
1 | CC(C)NC(=O)c1c[nH]c2ncc(Oc3ccc4c(c3)C=CC4)nc12 [Example I-302, 2-(1H-Inden-5-yloxy)-5H-pyrrolo[2,3-b]pyrazine-7-carboxylic acid isopropylamide] | 157

same assay, conditions: JAK3 kinase domain; ATP 1.5 uM, peptide 50 uM, 20 minutes, room temperature, 10% DMSO; read-out: Ic50 h-jak3(810-1124)-sf9-c:no additive

Row | Compound | IC50 [nM]
2 | COC(C)(C)CNC(=O)c1c[nH]c2ncc(C3CC3)nc12 [Example I-50, 2-Cyclopropyl-5H-pyrrolo[2,3-b]pyrazine-7-carboxylic acid (2-methoxy-2-methyl-propyl)-amide] | 9.03
3 | CC(C)(CO)CNC(=O)c1c[nH]c2ncc(Br)nc12 [Example I-1, 2-Bromo-5H-pyrrolo[2,3-b]pyrazine-7-carboxylic acid (3-hydroxy-2,2-dimethyl-propyl)-amide] | 225
4 | C[C@H](NC(=O)c1c[nH]c2ncc(C3CC3)nc12)c1ccccc1 [Example I-67, 2-Cyclopropyl-5H-pyrrolo[2,3-b]pyrazine-7-carboxylic acid ((S)-1-phenyl-ethyl)-amide] | 427
5 | CC(C)(CO)CNC(=O)c1c[nH]c2ncc(N3CCC(C)(C)C3)nc12 [Example I-14, 2-(3,3-Dimethyl-pyrrolidin-1-yl)-5H-pyrrolo[2,3-b]pyrazine-7-carboxylic acid (3-hydroxy-2,2-dimethyl-propyl)-amide] | 409
6 | CC(C)(O)C(C)(C)NC(=O)c1c[nH]c2ncc(C3CC3)nc12 [Example I-79, 2-Cyclopropyl-5H-pyrrolo[2,3-b]pyrazine-7-carboxylic acid (2-hydroxy-1,1,2-trimethyl-propyl)-amide] | 40.7
7 | C[C@H](NC(=O)c1c[nH]c2ncc(C3CCCC3)nc12)C(C)(C)O [Example I-6, 2-Cyclopentyl-5H-pyrrolo[2,3-b]pyrazine-7-carboxylic acid ((S)-2-hydroxy-1,2-dimethyl-propyl)-amide] | 126
8 | CC(C)NC(=O)c1c[nH]c2ncc(Oc3ccc4c(c3)[C@H](NC=O)CC4)nc12 [Example I-301, 2-((R)-3-Formylamino-indan-5-yloxy)-5H-pyrrolo[2,3-b]pyrazine-7-carboxylic acid isopropylamide] | 118
9 | Cc1ccc([C@@H](C)NC(=O)c2ccc(-c3cnc4[nH]cc(C(=O)N[C@@H](C)C(C)(C)C)c4n3)s2)cc1 [Example I-202, 2-[5-((R)-1-p-Tolyl-ethylcarbamoyl)-thiophen-2-yl]-5H-pyrrolo[2,3-b]pyrazine-7-carboxylic acid ((S)-1,2,2-trimethyl-propyl)-amide] | 0.52
10 | C[C@@H]1C[C@H]1c1cnc2[nH]cc(C(=O)NCC(C)(C)CO)c2n1 [Example I-43, 2-((1R,2R)-2-Methyl-cyclopropyl)-5H-pyrrolo[2,3-b]pyrazine-7-carboxylic acid (3-hydroxy-2,2-dimethyl-propyl)-amide] | 121
11 | C[C@H](NC(=O)c1c[nH]c2ncc(-c3ccc(C(=O)NCc4cccc(Cl)c4Cl)s3)nc12)C(C)(C)C [Example I-186, 2-[5-(2,3-Dichloro-benzylcarbamoyl)-thiophen-2-yl]-5H-pyrrolo[2,3-b]pyrazine-7-carboxylic acid ((S)-1,2,2-trimethyl-propyl)-amide] | 0.46
12 | COc1cccc(Oc2cnc3[nH]cc(C(=O)NC(C)C)c3n2)c1 [Example I-229, 2-(3-Methoxy-phenoxy)-5H-pyrrolo[2,3-b]pyrazine-7-carboxylic acid isopropylamide] | 184
13 | CC(CO)CNC(=O)c1c[nH]c2ncc(C3CC3)nc12 (centres unmarked) [Example I-69, 2-Cyclopropyl-5H-pyrrolo[2,3-b]pyrazine-7-carboxylic acid (3-hydroxy-2-methyl-propyl)-amide] | 143
14 | CS(=O)(=O)N1CCCC(CNC(=O)c2c[nH]c3ncc(C4CC4)nc23)C1 (centres unmarked) [Example I-108, 2-Cyclopropyl-5H-pyrrolo[2,3-b]pyrazine-7-carboxylic acid (1-methanesulfonyl-piperidin-3-ylmethyl)-amide] | 163
15 | CC(C)NC(=O)c1c[nH]c2ncc(Oc3cccc4c3OC(C)(C)C4)nc12 [Example I-254, 2-(2,2-Dimethyl-2,3-dihydro-benzofuran-7-yloxy)-5H-pyrrolo[2,3-b]pyrazine-7-carboxylic acid isopropylamide] | 2990
16 | C[C@H](NC(=O)c1c[nH]c2ncc(-c3ccc(C(=O)Nc4ccccc4)s3)nc12)C(C)(C)C [Example I-201, 2-(5-Phenylcarbamoyl-thiophen-2-yl)-5H-pyrrolo[2,3-b]pyrazine-7-carboxylic acid ((S)-1,2,2-trimethyl-propyl)-amide] | 0.57
17 | CC(C)(C)[C@H](CC#N)NC(=O)c1c[nH]c2ncc(C3CC3)nc12 [Example I-77, 2-Cyclopropyl-5H-pyrrolo[2,3-b]pyrazine-7-carboxylic acid ((S)-1-cyanomethyl-2,2-dimethyl-propyl)-amide] | 13.7
18 | CC(NC(=O)c1c[nH]c2ncc(Oc3ccc(F)cc3)nc12)C1CC1 (centres unmarked) [Example I-113, 2-(4-Fluoro-phenoxy)-5H-pyrrolo[2,3-b]pyrazine-7-carboxylic acid (1-cyclopropyl-ethyl)-amide] | 35.7

Row | Compound | IC50 [nM]
19 | Cc1ccc(-c2cnc3[nH]cc(C(=O)N[C@@H](C)C(C)(C)O)c3n2)cn1 [Example I-21, 2-(6-Methyl-pyridin-3-yl)-5H-pyrrolo[2,3-b]pyrazine-7-carboxylic acid ((S)-2-hydroxy-1,2-dimethyl-propyl)-amide] | 45
20 | C[C@H](NC(=O)c1c[nH]c2ncc(-c3ccc(C(=O)N4C5CCC4CC5)s3)nc12)C(C)(C)C [Example I-177, 2-[5-(7-Aza-bicyclo[2.2.1]heptane-7-carbonyl)-thiophen-2-yl]-5H-pyrrolo[2,3-b]pyrazine-7-carboxylic acid ((S)-1,2,2-trimethyl-propyl)-amide] | 0.32
21 | CS(=O)(=O)N1CCC(CNC(=O)c2c[nH]c3ncc(C4CC4)nc23)C1 (centres unmarked) [Example I-109, 2-Cyclopropyl-5H-pyrrolo[2,3-b]pyrazine-7-carboxylic acid (1-methanesulfonyl-pyrrolidin-3-ylmethyl)-amide] | 231
22 | Cc1ccc(CNC(=O)c2ccc(-c3cnc4[nH]cc(C(=O)N[C@@H](C)C(C)(C)C)c4n3)s2)cc1 [Example I-184, 2-[5-(4-Methyl-benzylcarbamoyl)-thiophen-2-yl]-5H-pyrrolo[2,3-b]pyrazine-7-carboxylic acid ((S)-1,2,2-trimethyl-propyl)-amide] | 0.32
23 | C[C@H](NC(=O)c1c[nH]c2ncc(-c3cn(-c4cccc(C(C)(C)C)c4)cn3)nc12)C(C)(C)C [Example I-153, 2-[1-(3-tert-Butyl-phenyl)-1H-imidazol-4-yl]-5H-pyrrolo[2,3-b]pyrazine-7-carboxylic acid ((S)-1,2,2-trimethyl-propyl)-amide] | 75.4
24 | CC[C@H](CO)NC(=O)c1c[nH]c2ncc(C3CC3)nc12 [Example I-58, 2-Cyclopropyl-5H-pyrrolo[2,3-b]pyrazine-7-carboxylic acid ((R)-1-hydroxymethyl-propyl)-amide] | 37.7
25 | C[C@H](CO)NC(=O)c1ccc(-c2cnc3[nH]cc(C(=O)N[C@@H](C)C(C)(C)C)c3n2)s1 [Example I-169, 2-[5-((R)-2-Hydroxy-1-methyl-ethylcarbamoyl)-thiophen-2-yl]-5H-pyrrolo[2,3-b]pyrazine-7-carboxylic acid ((S)-1,2,2-trimethyl-propyl)-amide] | 0.29
26 | CC(C)(C(=O)O)C(NC(=O)c1c[nH]c2ncc(C3CC3)nc12)C1CC1 (centres unmarked) [Example I-92, 3-Cyclopropyl-3-[(2-cyclopropyl-5H-pyrrolo[2,3-b]pyrazine-7-carbonyl)-amino]-2,2-dimethyl-propionic acid] | 95.1
27 | CNC(=O)CNc1cnc2[nH]cc(C(=O)NCC(C)(C)CO)c2n1 [Example I-16] | 459
28 | CC(NC(=O)c1ccc(-c2cnc3[nH]cc(C(=O)N[C@@H](C)C(C)(C)C)c3n2)s1)c1ccc(F)cc1 (stereo partly drawn) [Example I-195, 2-{5-[1-(4-Fluoro-phenyl)-ethylcarbamoyl]-thiophen-2-yl}-5H-pyrrolo[2,3-b]pyrazine-7-carboxylic acid ((S)-1,2,2-trimethyl-propyl)-amide] | 0.46
29 | CC[C@@](C)(O)[C@@H](C)NC(=O)c1c[nH]c2ncc(C3CC3)nc12 [Example I-83, 2-Cyclopropyl-5H-pyrrolo[2,3-b]pyrazine-7-carboxylic acid ((1R,2R)-2-hydroxy-1,2-dimethyl-butyl)-amide] | 47.2
30 | O=C(N[C@H](C1CC1)C1(O)CCCC1)c1c[nH]c2ncc(C3CC3)nc12 [Example I-104, 2-Cyclopropyl-5H-pyrrolo[2,3-b]pyrazine-7-carboxylic acid [(R)-cyclopropyl-(1-hydroxy-cyclopentyl)-methyl]-amide] | 16.3
31 | C[C@H](NC(=O)c1c[nH]c2ncc(-c3cnn(C)c3)nc12)C(C)(C)C#N [Example I-139, 2-(1-Methyl-1H-pyrazol-4-yl)-5H-pyrrolo[2,3-b]pyrazine-7-carboxylic acid ((S)-2-cyano-1,2,2-trimethyl-ethyl)-amide] | 0.55
32 | CC1CCCC(C)N1C(=O)c1ccc(-c2cnc3[nH]cc(C(=O)N[C@@H](C)C(C)(C)C)c3n2)s1 (stereo partly drawn) [Example I-181, 2-[5-(2,6-Dimethyl-piperidine-1-carbonyl)-thiophen-2-yl]-5H-pyrrolo[2,3-b]pyrazine-7-carboxylic acid ((S)-1,2,2-trimethyl-propyl)-amide] | 0.62
33 | CC(C)NC(=O)c1c[nH]c2ncc(Oc3ccc4ccccc4c3)nc12 [Example I-242, 2-(Naphthalen-2-yloxy)-5H-pyrrolo[2,3-b]pyrazine-7-carboxylic acid isopropylamide] | 1180
34 | C[C@H](NC(=O)c1c[nH]c2ncc(Oc3ccccc3)nc12)C(C)(C)O [Example I-128, 2-Phenoxy-5H-pyrrolo[2,3-b]pyrazine-7-carboxylic acid ((S)-2-hydroxy-1,2-dimethyl-propyl)-amide] | 211
35 | CC(C)NC(=O)c1c[nH]c2ncc(Oc3ccccc3C(F)(F)F)nc12 [Example I-236, 2-(2-Trifluoromethyl-phenoxy)-5H-pyrrolo[2,3-b]pyrazine-7-carboxylic acid isopropylamide] | 2960
